Laboratory results published in patent US20120277286A1, “COMPOSITIONS AND METHODS FOR THE TREATMENT OR PREVENTION OF MITOCHONDRIAL DISEASES” (The Government of the USA, as represented by the Secretary, …, priority 2009, published 2012).
Changes are numbered by the printed parent chain. Numbers in names are those of the source.

Tests used:
Format in all cases: cell-based
HeLa cells [1] = test: Regulated FRB/FKBP heterodimerization of PINK1 to outer mitochondrial membrane
From the text: In the presence of the rapamycin derivative AP21967, the FRB domain and the FKBP domain heterodimerize, but only if they are in the same compartment. Thus, FRB-PINK1Δ1-110-YFP should be recruited from the cytosol to mitochondria if the FKBP domain of TOM20-FKBP faces the cytosol but not if it faces the inner membrane space or the matrix. […] To assess whether PINK1 expression on the outer mitochondrial membrane is sufficient to recruit Parkin, mCherry-Parkin, FRB-PINK1Δ1-110-YFP, and TOM20-FKBP were co-transfected. In the absence of AP21967, mCherry-Parkin was in the cytosol, but following incubation AP21967 mCherry-Parkin was recruited to mitochondria in 96.7±4.1% of cells, in the absence of CCCP (FIG. 14F and FIG. 15D).
HeLa YFP-Parkin, E18 Rat cortical neurons, PINK1^+/+ SV40 transformed MEFs cells, PINK1^−/− SV40 transformed MEF, M17 neuroblastoma control shRNA, M17 neuroblastoma PINK1, Mfn1/2^−/− MEF, and Parl^−/− MEF cell lines have been described previously (Narendra (2008) J Cell Biol 183: 795-803). PINK1^+/+ and PINK1^−/− primary MEFs were isolated from embryos using a standard protocol (Gautier (2008) Proc Natl Acad Sci USA 105: 11364-11369). […]

HeLa cells [2] = test: PINK1-YFP imaging and colocalization in HeLa cells; conditions: 2 mM paraquat, 16 hours
Protocol: (§1) Confocal microscopy of fixed samples, scoring of Parkin recruitment and Parkininduced mitophagy, and live cell imaging were performed as described previously (Narendra (2008) J Cell Biol 183: 795-803). Experiments in Mfn1/2 null cells were performed as described previously with minor modifications.
as §1, with “Parkin-induced” for “Parkininduced”, “imageing” for “imaging”, “modifications described in the supplemental methods (Narendra (2008) J Cell Biol 183: 795-803).” for “modifications.”

HeLa cells [3] = test: Parkin colocalization with mitochondria scored by confocal microscopy; conditions: HeLa cells, 2 mM paraquat, 24 hours
How it was run: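 Transfected HeLa cells fixed 12–24 h post-transfection in 4% paraformaldehyde. Cells immunostained for mitochondrial markers and imaged by confocal microscopy. Parkin recruitment to mitochondria assessed by line-scan colocalization.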

[4] = tested on: HeLa cells stably expressing GFP-LC3; test: Mitochondria encapsulated by LC3-positive autophagosomes; conditions: 10 μM CCCP, 1 hour
Protocol: Previous studies in mammalian cells have concluded that depolarized mitochondria are degraded by autophagy. To test whether Parkin may be regulating this process, colocalization was assessed between a marker of autophagosomes, LC3, and mitochondria after mitochondrial depolarization using HeLa cells stably transfected with GFP-LC3 (Bampton et al., 2005). Little colocalization between mitochondria and autophagosomes was seen after 1 hours of CCCP exposure in untransfected HeLa cells (FIG. 5A, left). […] Consistent with the conclusion that Parkin accumulates on mitochondria destined for autophagy, Parkin colocalized with LC3 after CCCP treatment (FIG. 5C) but not before.
HeLa cells stably expressing YFP-Parkin using the Flp-In system (Invitrogen) were creating according to the manufacturer's instructions and maintained in 300 μg/ml hygromycin (Sigma-Aldrich). Rat cortical neurons were isolated on embryonic day 18 and grown in neurobasal media supplemented with B-27, L-glutamine, and penicillin/streptomycin. All cell culture materials were obtained from Invitrogen and all chemicals were obtained from Sigma-Aldrich. Chemicals were prepared from DMSO stock solutions, except paraquat, N-acetyl-cysteine, and 3-methyladenine, which were added fresh to media. Mfn1−/−, Mfn2−/− and Mfn1−/−, Mfn2−/− double knockout MEFs were generously donated by D. C. […]

HeLa cells [5] = test: Mitochondrial translocation of Parkin by imaging (Examples 4 and 5); conditions: HeLa cells or PINK1 KO cells, without CCCP
Protocol: (§2) Cells were cultured in borosilicated chamber slides for imaging, 6-well plates for whole cell lysates, and 100 or 150 mm culture dish for subcellular fractionation. One day after seeding, cells were transfected with indicated constructs using Fugene HD (Roche) or Lipofectamine 2000 (Invitrogen) according to the manufacturer's guidelines.
For immunocytochemistry, cultured cells in borosilicated chamber slides were fixed with 4% paraformaldehyde in PBS (USB) and permeabilized with the indicated detergent. After 30 min blocking with 10% BSA in PBS, cells were stained with the following primary antibodies: antiTom20 polyclonal antibody (Santa Cruz Biotechnology, Inc.) and anti-cytochrome C monoclonal antibody (BD), or anti-Tom20 monoclonal antibody (BD) and anti-GFP polyclonal antibody (Invitrogen) and then with the following secondary antibodies: goat anti-mouse/rabbit IgG antibody conjugated with Alexa Fluor 594/647, respectively. In case of live cell imaging, cells were pulsed with 600 nM TMRE for 5 min to evaluate mitochondrial membrane potential or 10 nM Mitotracker Red for 30 min to see the mitochondrial morphology. Cells were imaged using an inverted microscope (LSM510 Meta; Carl Zeiss) with 63×/1.4 oil DIC Plan Apo objective. Image contrast and brightness were adjusted in LSM image browser (Carl Zeiss).

PINK1 = PINK1 cleavage pattern by immunoblotting (Examples 4 and 5); conditions: HeLa, absence of MG132 treatment
Protocol: PARL siRNA (5′-[…]-C′) were synthesized by Qiagen. In order to achieve efficient knockdown of PARL, cells were transfected twice over a period of 96 hrs. PINK1-V5/His was a gift from M. Cookson (National Institute of Health, Bethesda, Md.). For site-directed mutagenesis, primers were designed using Primer X, web-based mutagenic primer design program (http://www.bioinformatics.org/primerx/), and produced by Operon. 15 rounds of PCR reactions were performed using Phusion DNA polymerase (Finnzymes) and WT PINK1-YFP constructs as a template. Introduction of point mutations were confirmed by sequencing.
as §2
For whole cell lysates, cells were washed twice with cold-PBS and then directly lysed with 1× sample buffer. For mitochondrial fraction, cells were fractionated as described previously (Narendra et al., 2008) and below, and then mitochondrial pellets were lysed with 1× sample buffer. 20 μg of proteins were separated on 4-12% Tris-glycine or Bis-Tris SDS-PAGE. The following antibodies were used: anti-PINK1 (Novus Biologicals), anti-PARL N-terminal (a gift from L. Pellegrini), anti-Tom20 (Santa Cruz Biotechnology, Inc.), anti-AIF (Sigma-Aldrich) and antiHtra2/Omi (R&D systems) polyclonal antibodies; anti-VDAC (Calbiochem), anti-Tubulin, anti-βactin (Sigma-Aldrich), anti-Hsp70 (Cell Signaling Technologies), anti-Tom20 (BD), anti-Tim23 and anti-cytochrome C (BD) monoclonal antibodies.

CO[C@H]1[C@@H](O)[C@H](C)C[C@H](C)/C=C/C=C/C=C(\C)[C@@H](c2c[nH]c3c(C)cccc23)C[C@@H]2CC[C@@H](C)[C@@](O)(O2)C(=O)C(=O)N2CCCC[C@H]2C(=O)O[C@H]([C@H](C)C[C@@H]2CC[C@@H](O)[C@H](OC)C2)C[C@H](O)[C@H](C)/C=C(\C)[C@H]1O [AP21967]
cells with mCherry-Parkin recruited to mitochondria (HeLa cells [1]; HeLa with FRB-PINK1Δ1-110-YFP, TOM20-FKBP, mCherry-Parkin, 250 nM AP21967, 8 hours, absence of CCCP): 96.7±4.1%
recruitment of FRB-PINK1Δ1-110-YFP to the outer mitochondrial membrane (HeLa cells [1]; HeLa, 250 nM AP21967): quickly recruited

C[n+]1ccc(-c2cc[n+](C)cc2)cc1 [paraquat, reference compound]
average pearson coefficient PINK1-YFP / MTR (HeLa cells [2]): 0.26±0.13
average pearson coefficient PINK1-YFP / cytochrome c (HeLa cells [2]): 0.58±0.11
YFP-Parkin recruitment to mitochondria (HeLa cells [3]): recruited to depolarized mitochondria
YFP-Parkin recruitment to mitochondria (HeLa cells [3]; listed as Paraquat): triggers Parkin recruitment to mitochondria

B1: mCherry-Parkin: mCherry-tagged Parkin expressed from a transfected vector (protein, UniProt O60260 1-465, looked up)
E3 ubiquitin-protein ligase …: MIVFVRFNSSHGFPVEVDSDTSIFQLKEVVAKRQGVPADQLRVIFAGKELRNDWTVQNCDLDQQSIVHIVQRPWRKGQEMNATGGDDPRNAAGGCEREPQSLTRVDLSSSVLPGDSVGLAVILHTDSRKDSPPAGSPAGRSIYNSFYVYCKGPCQRVQPGKLRVQCSTCRQATLTLTQGPSCWDDVLIPNRMSGECQSPHCPGTSAEFFFKCGAHPTSDKETSVALHLIATNSRNITCITCTDVRSPVLVFQCNSRHVICLDCFHLYCVTRLNDRQFVHDPQLGYSLPCVAGCPNSLIKELHHFRILGEEQYNRYQQYGAEECVLQMGGVLCPRPGCGAGLLPEPDQRKVTCEGGNGLGCGFAFCRECKEAYHEGECSAVFEASGTTTQAYRVDERAAEQARWEAASKETIKKTTKPCPRCHVPVEKNGGCMHMKCPQPQCRLEWCWNCGCEWNRVCMGDHWFDV
modifications: mCherry fusion
notes: mCherry-tagged Parkin expressed from a transfected vector
LC3 encompassed mitochondria per cell [4]: 10.55±6.06

B2: A103W: PINK1-YFP transmembrane domain point mutant (protein, UniProt Q9BXM7 78-581, looked up, variant A103W)
Serine/threonine-protein …: AARLQRQFVVRAWGCAGPCGRAVFLWFGLGLGLIEEKQAESRRAVSACQEIQAIFTQKSKPGPDPLDTRRLQGFRLEEYLIGQSIGKGCSAAVYEATMPTLPQNLEVTKSTGLLPGRGPGTSAPGEGQERAPGAPAFPLAIKMMWNISAGSSSEAILNTMSQELVPASRVALAGEYGAVTYRKSKRGPKQLAPHPNIIRVLRAFTSSVPLLPGALVDYPDVLPSRLHPEGLGHGRTLFLVMKNYPCTLRQYLCVNTPSPRLAAMMLLQLLEGVDHLVQQGIAHRDLKSDNILVELDPDGCPWLVIADFGCCLADESIGLQLPFSSWYVDRGGNGCLMAPEVSTARPGPRAVIDYSKADAWAVGAIAYEIFGLVNPFYGQGKAHLESRSYQEAQLPALPESVPPDVRQLVRALLQREASKRPSARVAANVLHLSLWGEHILALKNLKLDKMVGWLLQQSAATLLANRLTEKCCVETKMKMLFLANLECETLCQAALLLCSWRAAL
modifications: C-terminal YFP fusion
notes: PINK1-YFP transmembrane domain point mutant
mitochondrial translocation of Parkin induced by PINK1 mutant (HeLa cells [5]): did not recruit Parkin
52 kDa fragment of PINK1 (PINK1): stabilize the 52 kDa fragment

B3: G105W: PINK1-YFP transmembrane domain point mutant (protein, UniProt Q9BXM7 78-581, looked up, variant G105W)
Serine/threonine-protein …: B2 Serine/threonine-protein … with W26A, G28W
modifications: C-terminal YFP fusion
notes: as for B2
mitochondrial translocation of Parkin induced by PINK1 mutant (HeLa cells [5]): did not recruit Parkin
52 kDa fragment of PINK1 (PINK1): stabilize the 52 kDa fragment
